Measurements from PubChem BioAssay AID330 (DTP/NCI, 2004).
Where “and” joins values, the source holds several entries; their conditions need not be identical. Identical values can stand only once. Toxic doses and inconclusive results are not listed. The calls were made as follows: active = survival T/C of 150% or more; inactive = T/C below 125% in these data.

System: P388 leukemia ip, CD2F1 mice, survival T/C
Test: NCI In Vivo Anticancer Drug Screen. Data for tumor model P388 Leukemia (intraperitoneal) in CD2F1 (CDF1) mice
Conditions: endpoint: median survival time, higher = longer survival
Method in brief: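 Mice carrying the transplanted tumor received test compound or vehicle. Survival was recorded in each group, and the value is the treated-group measurement divided by that of the vehicle-treated control group.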

[1] = dose: 100.0 mg/kg/injection, schedule: Q01DX001 (ip), vehicle: saline with Tween-80
[2] = dose: 200.0 mg/kg/injection, schedule: Q01DX001 (ip), vehicle: saline with Tween-80
[3] = dose: 400.0 mg/kg/injection, schedule: Q01DX001 (ip), vehicle: saline with Tween-80
[4] = dose: 50.0 mg/kg/injection, schedule: Q01DX005 (ip), vehicle: saline with Tween-80
[5] = dose: 100.0 mg/kg/injection, schedule: Q01DX005 (ip), vehicle: saline with Tween-80
[6] = dose: 50.0 mg/kg/injection, schedule: Q04DX003 (ip), vehicle: saline with Tween-80
[7] = dose: 200.0 mg/kg/injection, schedule: Q04DX003 (ip), vehicle: saline with Tween-80
[8] = dose: 400.0 mg/kg/injection, schedule: Q04DX003 (ip), vehicle: saline with Tween-80
[9] = dose: 25.0 mg/kg/injection, schedule: Q01DX009 (ip), vehicle: saline with Tween-80
[10] = dose: 50.0 mg/kg/injection, schedule: Q01DX009 (ip), vehicle: saline with Tween-80
[11] = dose: 200.0 mg/kg/injection, schedule: Q01DX009 (ip), vehicle: saline with Tween-80
[12] = dose: 100.0 mg/kg/injection, schedule: Q01DX001 (ip), vehicle: Klucel (hydroxypropylcellulose) (HPC)
[13] = dose: 200.0 mg/kg/injection, schedule: Q01DX001 (ip), vehicle: Klucel (hydroxypropylcellulose) (HPC)
[14] = dose: 400.0 mg/kg/injection, schedule: Q01DX001 (ip), vehicle: Klucel (hydroxypropylcellulose) (HPC)

Measured: T/C

COCC(O)Cn1ccnc1[N+](=O)[O-] (stereo not given)
inactive: dose: 1.0 mg/kg/injection, schedule: Q01DX009 (ip), vehicle: saline + alcohol 100 % of control | dose: 1.0 mg/kg/injection, schedule: Q01DX009 (ip), vehicle: saline 104 % of control | dose: 2.0 mg/kg/injection, schedule: Q01DX009 (ip), vehicle: saline + alcohol 98 % of control | dose: 2.0 mg/kg/injection, schedule: Q01DX009 (ip), vehicle: saline 109 % of control | dose: 4.0 mg/kg/injection, schedule: Q01DX009 (ip), vehicle: saline 120 % of control | dose: 8.0 mg/kg/injection, schedule: Q01DX009 (ip), vehicle: saline 111 % of control | dose: 16.0 mg/kg/injection, schedule: Q01DX009 (ip), vehicle: saline 108 % of control | dose: 32.0 mg/kg/injection, schedule: Q01DX009 (ip), vehicle: saline 112 % of control | dose: 64.0 mg/kg/injection, schedule: Q01DX009 (ip), vehicle: saline + alcohol 124 % of control | dose: 64.0 mg/kg/injection, schedule: Q01DX009 (ip), vehicle: saline 102 % of control | dose: 128.0 mg/kg/injection, schedule: Q01DX009 (ip), vehicle: saline + alcohol 98 % of control | dose: 128.0 mg/kg/injection, schedule: Q01DX009 (ip), vehicle: saline 111 % of control | dose: 250.0 mg/kg/injection, schedule: Q01DX001 (ip), vehicle: saline + alcohol 97 % of control | dose: 256.0 mg/kg/injection, schedule: Q01DX009 (ip), vehicle: saline + alcohol 91 % of control | dose: 256.0 mg/kg/injection, schedule: Q01DX009 (ip), vehicle: saline 111 % of control | dose: 500.0 mg/kg/injection, schedule: Q01DX001 (ip), vehicle: saline + alcohol 100 % of control | dose: 512.0 mg/kg/injection, schedule: Q01DX009 (ip), vehicle: saline 112 % of control | dose: 600.0 mg/kg/injection, schedule: Q01DX005 (ip), vehicle: saline 114 % of control | dose: 1000.0 mg/kg/injection, schedule: Q01DX001 (ip), vehicle: saline + alcohol 102 % of control | dose: 1000.0 mg/kg/injection, schedule: Q01DX005 (ip), vehicle: saline 105 % of control | dose: 2000.0 mg/kg/injection, schedule: Q01DX001 (ip), vehicle: saline + alcohol 66 % of control

Nc1cccc(N)n1
inactive: dose: 3.12 mg/kg/injection, schedule: Q01DX009 (ip), vehicle: saline 102 % of control | dose: 6.25 mg/kg/injection, schedule: Q01DX009 (ip), vehicle: saline 101 % of control (2×) and 103 % of control | dose: 12.5 mg/kg/injection, schedule: Q01DX009 (ip), vehicle: saline 100 % of control and 109 % of control and 114 % of control | dose: 25.0 mg/kg/injection, schedule: Q01DX009 (ip), vehicle: saline 112 % of control and 124 % of control

C=C(C)C1(n2[nH]c(=O)n(-c3ccccc3)c2=O)CCC(C)=CC1=O (stereo not given)
inactive: [1] 102 % of control | [2] 95 % of control | [3] 87 % of control

CC(C)(C)[Si](C)(C)CC#C[Si](C)(C)C
inactive: [4] 104 % of control | [5] 103 % of control

Cc1cccc2c(-c3ccccc3)c3cccc[n+]3cc12
inactive: dose: 0.78 mg/kg/injection, schedule: Q01DX005 (ip), vehicle: Klucel (hydroxypropylcellulose) (HPC) 100 % of control and 103 % of control | dose: 1.56 mg/kg/injection, schedule: Q01DX005 (ip), vehicle: Klucel (hydroxypropylcellulose) (HPC) 108 % of control and 89 % of control | dose: 3.12 mg/kg/injection, schedule: Q01DX005 (ip), vehicle: Klucel (hydroxypropylcellulose) (HPC) 103 % of control and 97 % of control | dose: 6.25 mg/kg/injection, schedule: Q01DX005 (ip), vehicle: Klucel (hydroxypropylcellulose) (HPC) 94 % of control

CCOC(=O)C(C)(C)c1nc[nH]c1[N+](=O)[O-]
inactive: dose: 12.5 mg/kg/injection, schedule: Q04DX003 (ip), vehicle: saline with Tween-80 100 % of control | dose: 25.0 mg/kg/injection, schedule: Q04DX003 (ip), vehicle: saline with Tween-80 104 % of control | [6] 100 % of control | [7] 98 % of control | [8] 101 % of control

CCOc1c(N=Nc2ccccc2)c(C)nn1C(N)=S
inactive: dose: 60.0 mg/kg/injection, schedule: Q01DX005 (ip), vehicle: Klucel + Tween-80 95 % of control | dose: 120.0 mg/kg/injection, schedule: Q01DX005 (ip), vehicle: Klucel + Tween-80 102 % of control | dose: 240.0 mg/kg/injection, schedule: Q01DX005 (ip), vehicle: Klucel + Tween-80 95 % of control

Nc1c(Cl)cc(C(=O)NC2CC2)cc1Cl
inactive: [9] 94 % of control and 95 % of control | [10] 100 % of control and 88 % of control | dose: 100.0 mg/kg/injection, schedule: Q01DX009 (ip), vehicle: saline with Tween-80 102 % of control and 113 % of control | [11] 109 % of control and 89 % of control

CC(=O)OCC1OC(n2ccc(=S)[nH]c2=O)C(OC(C)=O)C1OC(C)=O (stereo not given)
inactive: [6] 93 % of control | dose: 100.0 mg/kg/injection, schedule: Q04DX003 (ip), vehicle: saline with Tween-80 100 % of control | [7] 92 % of control | [8] 102 % of control

O=C(O)c1cccc(Cl)c1 (tested in a mixture with another compound)
inactive: [1] 94 % of control | [2] 99 % of control | [3] 95 % of control

O=C(O)c1cccc(-n2ncc(Cl)c(Cl)c2=O)c1
inactive: dose: 12.5 mg/kg/injection, schedule: Q01DX009 (ip), vehicle: saline with Tween-80 113 % of control | [9] 108 % of control | [10] 99 % of control and 104 % of control | [11] 88 % of control

COc1ccc(CCN2CCC(CC3CCCCN3)CC2)cc1OC (stereo not given)
inactive: dose: 12.5 mg/kg/injection, schedule: Q01DX009 (ip), vehicle: distilled water + alcohol 103 % of control | dose: 25.0 mg/kg/injection, schedule: Q01DX009 (ip), vehicle: distilled water + alcohol 112 % of control | dose: 50.0 mg/kg/injection, schedule: Q01DX009 (ip), vehicle: distilled water + alcohol 105 % of control | dose: 100.0 mg/kg/injection, schedule: Q01DX009 (ip), vehicle: distilled water + alcohol 103 % of control

CCCn1c(Cl)c(/C=N\Nc2ccccc2[N+](=O)[O-])c2ccccc21
inactive: [1] 92 % of control | [2] 92 % of control | [3] 93 % of control

CC(=O)N1CCCC2=C1CCCCCCCCCC2
inactive: dose: 100.0 mg/kg/injection, schedule: Q04DX003 (ip), vehicle: saline 99 % of control | dose: 200.0 mg/kg/injection, schedule: Q04DX003 (ip), vehicle: saline 105 % of control | dose: 400.0 mg/kg/injection, schedule: Q04DX003 (ip), vehicle: saline 96 % of control

CN1C(=O)C2CCC1n1c(=O)n(-c3ccccc3)c(=O)n12 (stereo not given)
inactive: [12] 97 % of control | [13] 99 % of control | [14] 94 % of control

c1ccc2c3c(ccc2c1)Oc1ccc2ccccc2c1C3
inactive: [12] 102 % of control | [13] 97 % of control | [14] 100 % of control

COc1ccc2cc1Oc1ccc(cc1)CC1c3cc(OC)c(OC)c(c3CCN1C)Oc1c(OC)c(OC)cc3c1[C@H](C2)NCC3 (stereo not given in full)
inactive: dose: 2.75 mg/kg/injection, schedule: Q01DX005 (ip), vehicle: Klucel (hydroxypropylcellulose) (HPC) 90 % of control | dose: 5.5 mg/kg/injection, schedule: Q01DX005 (ip), vehicle: Klucel (hydroxypropylcellulose) (HPC) 99 % of control | dose: 11.0 mg/kg/injection, schedule: Q01DX005 (ip), vehicle: Klucel (hydroxypropylcellulose) (HPC) 99 % of control | dose: 22.0 mg/kg/injection, schedule: Q01DX005 (ip), vehicle: Klucel (hydroxypropylcellulose) (HPC) 94 % of control

CCCCCCN(CCCCCC)CC(O)c1ccc(Cl)c2ccccc12 (stereo not given)
inactive: [4] 115 % of control | [5] 101 % of control | dose: 200.0 mg/kg/injection, schedule: Q01DX005 (ip), vehicle: saline with Tween-80 92 % of control

CCOC(=O)C(=O)C1Cc2ccc3ccc(OC)cc3c2C1=O (stereo not given)
inactive: dose: 12.5 mg/kg/injection, schedule: Q01DX009 (ip), vehicle: distilled water + Tween-80 109 % of control | dose: 25.0 mg/kg/injection, schedule: Q01DX009 (ip), vehicle: distilled water + Tween-80 112 % of control | dose: 50.0 mg/kg/injection, schedule: Q01DX009 (ip), vehicle: distilled water + Tween-80 102 % of control | dose: 100.0 mg/kg/injection, schedule: Q01DX009 (ip), vehicle: distilled water + Tween-80 94 % of control | dose: 200.0 mg/kg/injection, schedule: Q01DX009 (ip), vehicle: distilled water + Tween-80 102 % of control
